The test is described as follows: Inhibitory effect on human liver uridine phosphorylase.
As for `O=C1NC(=S)NC(=O)C1Cc1cccc(OCc2ccccc2)c1`, the affinity corresponds to a Ki of 3.7 µM.

On to `O=C1NC(=O)C(Cc2cccc(OCc3ccccc3)c2)C(=O)N1`, for which the Ki worked out at 2.3 µM.

On to `O=C1NC(=O)C(Cc2ccc(OCc3ccccc3)cc2)C(=O)N1`, for which the inhibition constant Ki was found to be 118 µM.

For the compound `O=C1NC(=O)C(Cc2ccccc2OCc2ccccc2)C(=O)N1`, the affinity, expressed as Ki, was 41.8 µM.
